# Data published in article PMC10052035, “Virtual Screening, Structural Analysis, and Formation Thermodynamics of Carbamazepine Cocrystals” (Pharmaceutics, 2023).
# Like-named read-outs stand apart in the source and are kept apart here.
# Key:
# [1] = type: physicochemical
# Description: The saturation shake-flask method was used to measure the aqueous solubility of the CBZ cocrystals in a pH 2.0 buffer solution at the eutectic point, where drug and cocrystal are in equilibrium with the solution. The eutectic point between the cocrystal and the drug was reached by suspending 80 mg of the cocrystal and 30 mg of CBZ in 2 mL of the buffer solution. The obtained suspension was stirred continuously for 72 h at 37.0 ± 0.1 °C. After equilibration, the final pH of the solution was measured. The suspension was diluted with the mobile phase after being filtered through a […] PTEF filter. Concentrations of compounds were analyzed by HPLC. The solid phases after the experiment were characterized by PXRD.
# The column temperature was set to 40 °C.
# [2] = Solubility of cocrystals and their constituents in organic solvents (shake-flask, HPLC); conditions: for Ccc,4AcAmBA∙10^2, coformer concentration in equilibrium with cocrystal / Ccc,CBZ∙10^2, CBZ concentration in equilibrium with cocrystal / Cp∙10^2, solubility of pure component: value is C∙10^2; for solubility at 48 h: organic solvent or mixture, thermodynamic from solid
# Description: For the [CBZ + 3AcAmBA] (1:1) cocrystal, methanol was used. For [CBZ + 4AcAmBA] (1:1), all the experiments were performed in acetonitrile. An excess of the solid was placed in an Eppendorf tube, and 2 mL of solvent was added. The resulting suspension was shaken in a ThermoMixer C (Eppendorf, Hamburg, Germany) at 800 rpm for 48 h at the specified temperature. Subsequently, the saturated solution was separated using a 0.22 μm PTEF filter, diluted, and analyzed using HPLC. The solid phases after the experiment were collected and characterized by PXRD. Each experiment was repeated three times.
# The HPLC was performed on an LC-20 AD Shimadzu Prominence model (Shimadzu, Kyoto, Japan) equipped with a PDA detector and a Luna C-18 column (150 mm × 4.6 mm i.d., 5 μm particle size, and 100 Å pore size). The column temperature was set to 40 °C. To achieve the proper separation of the cocrystal components, different ratios of the mobile phase, consisting of acetonitrile and a 0.1% aqueous solution of trifluoroacetic acid (35:65 v/v), were used. The flow rate was 1.0 mL·min^−1, and the injection volume was 20 μL. The UV detection of carbamazepine, 2-acetamidobenzoic acid, 3-acetamidobenzoic acid, and 4-acetamidobenzoic acid was carried out at the wavelengths of 285 nm, 249 nm, 220 nm, and 266 nm, respectively.
# [3] = Cocrystal formation thermodynamics from solubility data (Kf, ΔformG, ΔformH, ΔformS); type: physicochemical; conditions: for ΔformH: van't Hoff, 293.15-313.15 K
# Description: It is known that the relative stability of a cocrystal with respect to a physical mixture of the parent constituents at a given temperature can be quantitatively expressed in terms of the free-energy change, ΔformG, of the cocrystallization reaction. Analyzing the temperature dependence of the Gibbs formation energy can provide further information on the enthalpy and entropy contributions to the driving force of the process as well as help to estimate the thermodynamic transition temperature, which determines the stability domains of a cocrystal and its individual constituents. The experimental assessment of ΔformG is based on solubility data for the starting molecules and the corresponding cocrystal in the same solvent at a predetermined temperature using the equation below:(3) ΔformG=−RTlnap,Ax×ap,By/acc,Ax×acc,By=−RTlnap,Ax×ap,By/Ksp=−RTlnKf, where ap,A and ap,B represent the activities of pure A and B compounds in a saturated solution; acc,A and acc,B are the activities of the cocrystal components in a solution, in equilibrium with pure cocrystal; Ksp is the solubility product of a cocrystal; T is the temperature; x and y are the stoichiometric coefficients; and Kf is an equilibrium constant at the experimental temperature.
# Using the van’t Hoff expression, the enthalpy of the cocrystallization process, ΔformH, may be estimated by evaluating the Kf values at various temperatures (assuming that ΔformH is a constant within the selected temperature range):(4) dlnKf/d(1/T)=−ΔformH/R
# The entropy of cocrystal formation, ΔformS, can be estimated from (5) ΔformS=ΔformH−ΔformG/T
# Even though the activities in Equation (3) are usually approximated by the corresponding molar concentration while neglecting the activity coefficients, a more valid approximation implies that the activity coefficients for the two solute species are constant along the cocrystal solubility line and equal to the activity coefficients of the pure components in the saturated solutions in the same solvent and temperature. […] Table S5 contains the solubility values of CBZ, coformers, and the CBZ cocrystals with emodin, paeonol, nicotinamide, and glutaric acid in various organic solvents.
# [4] = cited from earlier work
# [5] = 298.2K, listed as [CBZ+4AcAmBA] (1:1)
smiles,measurement,setting,value
"NC(=O)N1c2ccccc2C=Cc2ccccc21.O [carbamazepine hydrate, reference compound]",solubility,"[1]; acidic conditions (pH 2.0), 310.2 K",(8.30 ± 0.02)·10^−4 mol·l^−1
CC(=O)Nc1ccc(C(=O)O)cc1.NC(=O)N1c2ccccc2C=Cc2ccccc21 [[CBZ + 4AcAmBA] (1:1)],"Scc, solubility of the cocrystal",[1]; pH 2,(0.80 ± 0.02)·10^−3 Mol·L^−1
same,"[CF]eu, eutectic concentration of coformer","[1]; pH 2.0, 310.2 K, eutectic point",(6.4 ± 0.2)·10^−4 Mol·L^−1
same,"[CBZ]eu, eutectic concentration of CBZ","[1]; pH 2.0, 310.2 K, eutectic point (drug and cocrystal in equilibrium with solution)",(1.00 ± 0.05)·10^−3 Mol·L^−1
same,"Keu, eutectic constant","[1]; pH 2.0, 310.2 K, Keu = [CF]eu/[CBZ]eu",0.64 ± 0.04
same,"Ccc,4AcAmBA∙10^2, coformer concentration in equilibrium with cocrystal","[2]; acetonitrile, 293.15 K",0.880±0.016 mol/l
same,"Ccc,CBZ∙10^2, CBZ concentration in equilibrium with cocrystal","[2]; acetonitrile, 293.15 K",0.875±0.014 mol/l
same,"Ccc,4AcAmBA∙10^2, coformer concentration in equilibrium with cocrystal","[2]; acetonitrile, 298.15 K",1.046±0.010 mol/l
same,"Ccc,CBZ∙10^2, CBZ concentration in equilibrium with cocrystal","[2]; acetonitrile, 298.15 K",1.013±0.015 mol/l
same,"Ccc,4AcAmBA∙10^2, coformer concentration in equilibrium with cocrystal","[2]; acetonitrile, 303.15 K",1.222±0.017 mol/l
same,"Ccc,CBZ∙10^2, CBZ concentration in equilibrium with cocrystal","[2]; acetonitrile, 303.15 K",1.198±0.007 mol/l
same,"Ccc,4AcAmBA∙10^2, coformer concentration in equilibrium with cocrystal","[2]; acetonitrile, 308.15 K",1.472±0.008 mol/l
same,"Ccc,CBZ∙10^2, CBZ concentration in equilibrium with cocrystal","[2]; acetonitrile, 308.15 K",1.428±0.009 mol/l
same,"Ccc,4AcAmBA∙10^2, coformer concentration in equilibrium with cocrystal","[2]; acetonitrile, 313.15 K",1.707±0.030 mol/l
same,"Ccc,CBZ∙10^2, CBZ concentration in equilibrium with cocrystal","[2]; acetonitrile, 313.15 K",1.684±0.022 mol/l
same,T·ΔformS,[3]; 298.2K,-0.574 ± 0.14 kcal/mol
same,lnKf,[3]; 298.2K,2.86 ± 0.03
same,ΔformG,[3]; 298.2K,-1.69 ± 0.019 kcal/mol
same,T·ΔformS,[3]; [5],-0.574 ± 0.14 kcal/mol
same,ΔformG,[3]; [5],-1.69 ± 0.019 kcal/mol
same,ΔformH,[3]; 298.2K,-2.27 ± 0.14 kcal/mol
same,ΔformH,[3]; [5],-2.27 ± 0.14 kcal/mol
same,lnKf,"[3]; acetonitrile, 293.15 K",2.93±0.04
same,∆formG,"[3]; acetonitrile, 293.15 K",-1.7 ± 0.022 kcal/mol
same,lnKf,"[3]; acetonitrile, 298.15 K",2.86±0.03
same,∆formG,"[3]; acetonitrile, 298.15 K",-1.69 ± 0.019 kcal/mol
same,lnKf,"[3]; acetonitrile, 303.15 K",2.82±0.03
same,∆formG,"[3]; acetonitrile, 303.15 K",-1.7 ± 0.017 kcal/mol
same,lnKf,"[3]; acetonitrile, 308.15 K",2.75±0.02
same,∆formG,"[3]; acetonitrile, 308.15 K",-1.68 ± 0.012 kcal/mol
same,lnKf,"[3]; acetonitrile, 313.15 K",2.67±0.03
same,∆formG,"[3]; acetonitrile, 313.15 K",-1.66 ± 0.019 kcal/mol
"NC(=O)N1c2ccccc2C=Cc2ccccc21 [CBZ, carbamazepine]",solubility at 48 h,"[2]; acetonitrile, 20 °C",142 ± 3 mM
same,solubility at 48 h,"[2]; acetonitrile, 25 °C",162 ± 4 mM
same,solubility at 48 h,"[2]; acetonitrile, 30 °C",191 ± 4 mM
same,solubility at 48 h,"[2]; acetonitrile, 35 °C",222 ± 3 mM
same,solubility at 48 h,"[2]; acetonitrile, 40 °C",250 ± 4 mM
same,"Cp∙10^2, solubility of pure component","[2]; acetonitrile, 293.15 K",14.2±0.3 mol/l
same,solubility at 48 h,"[2]; methanol, 20 °C",220 ± 2 mM
same,solubility at 48 h,"[2]; methanol, 25 °C",248 ± 2 mM
same,solubility at 48 h,"[2]; methanol, 30 °C",285 ± 2 mM
same,solubility at 48 h,"[2]; methanol, 35 °C",323 ± 3 mM
same,solubility at 48 h,"[2]; methanol, 40 °C",356 ± 1 mM
same,"Cp∙10^2, solubility of pure component","[2]; methanol, 293.15 K",22.0±0.2 mol/l
same,"log(S0), intrinsic solubility","[4]; 2-propanol, ref [6]",-1.36 mol⋅L-1
same,"log(S0), intrinsic solubility","[4]; 2-propanol, ref [10]",-1.3 mol⋅L-1
same,"log(S0), intrinsic solubility","[4]; Acetone, ref [6]",-1.27 mol⋅L-1
same,"log(S0), intrinsic solubility","[4]; Ethanol, ref [6]",-0.97 mol⋅L-1
same,"log(S0), intrinsic solubility","[4]; Ethanol, ref [10]",-0.85 mol⋅L-1
same,"log(S0), intrinsic solubility","[4]; Ethyl acetate, ref [6]",-1.32 mol⋅L-1
same,"log(S0), intrinsic solubility","[4]; Ethyl acetate, ref [10]",-1.31 mol⋅L-1
same,"log(S0), intrinsic solubility","[4]; Methanol, ref [6]",-0.49 mol⋅L-1
